Key:
Type in all cases: cell membranes
[1] = biological target: T1, Ras-related protein Rap-1A (Homo sapiens, UniProt P62834); test: Binding affinity to RAP1A in human RBC membrane by surface plasmon resonance analysis with inverted configuration
T1 sequence (P62834 whole entry): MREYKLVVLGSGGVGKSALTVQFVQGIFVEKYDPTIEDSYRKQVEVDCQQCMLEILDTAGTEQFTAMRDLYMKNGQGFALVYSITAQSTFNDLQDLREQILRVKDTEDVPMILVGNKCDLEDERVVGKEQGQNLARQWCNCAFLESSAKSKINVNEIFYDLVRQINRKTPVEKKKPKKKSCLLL

[2] = biological target: T1, Ras-related protein Rap-1A; test: Binding affinity to RAP1A in human RBC membrane by surface plasmon resonance analysis
[3] = biological target: T1, Ras-related protein Rap-1A; test: Binding affinity to RAP1A in human RBC membrane by Western blot analysis

Compound | Kd [1] | Kd [2] | Kd [3]
C=CCC(=C)/C=C/[C@@](C)(O)[C@H]1O[C@@H]2C[C@@H]3O[C@@H]4C[C@@H]5O[C@@H]6C[C@@H]7O[C@@H]8C[C@@H]9O[C@@H]%10C[C@@H]%11O[C@](C)(CCO)[C@@H](O)C[C@H]%11O[C@H]%10C[C@H]9O[C@H]8CC[C@@]7(C)O[C@@]6(C)CC[C@H](C)[C@H]5O[C@H]4[C@@H](O)[C@@]3(C)O[C@H]2CC1=C [DESULFO-YESSOTOXIN] | 0.5 µM | – | –
C=CCC(=C)/C=C/[C@@](C)(O)[C@H]1O[C@@H]2C[C@@H]3O[C@@H]4C[C@@H]5O[C@@H]6C[C@@H]7O[C@@H]8C[C@@H]9O[C@@H]%10C[C@@H]%11O[C@](C)(CCOS(=O)(=O)O)[C@@H](OS(=O)(=O)O)C[C@H]%11O[C@H]%10C[C@H]9O[C@H]8CC[C@@]7(C)O[C@@]6(C)CC[C@H](C)[C@H]5O[C@H]4C[C@@]3(C)O[C@H]2CC1=C [YESSOTOXIN] | – | 4 µM | 4 µM
